Laboratory results as given in patent US9073916B2, “Prodrug forms of kinase inhibitors and their use in therapy” (AUCKLAND UNISERVICES LIMITED, priority 2009, dated 2015).
Like-named read-outs stand apart in the source and are kept apart here.

Assays:
A431 cells = test: Oxic and hypoxic cellular metabolism of prodrug 20; format: in vitro ADME, Human; details: 10 uM prodrug
Experimental: (§1) A431 and SKOV3 cells were grown in a 175 flask and seeded at 40K, a density which gave an 80-90% confluent cell layer after 7 days growth. Cells were washed with PBS, harvested with 0.05% trypsin/EDTA, centrifuged at 1000 rpm for 5 mins at room temperature and re-suspended in a 1 mL of cell culture medium (α-MEM containing 10% FCS, 10 mM D-Glucose and 0.2 mM 2′-deoxycytidine). Cell numbers were determined with the Coulter counter and the appropriate number of cells was transferred to a new tube. 5×10^5 cells per well were plated into wells of a 24-well plate in a total volume of 350 μL/well (i.e. 14.3×10^5 cells/mL). Cells were incubated at 37° C. for two hours to attach to the wells and for anoxic samples to equilibrate. […] The cells were incubated for 1, 2 or 3 hours at 37° C. At the appropriate time the 24 well plate was removed from the incubator/anoxic chamber and placed on ice. The contents of each well was transferred to the microcentrifuge tube kept on ice. 800 μL of acetonitrile (spiked with D6 internal standards of compounds 11 and 20, each 0.5 uM) was added to each of the drug treated wells to allow efficient extraction from the cell monolayer. Then the entire contents (1200 uL=400+800 uL) was vortex mixed and transferred to −80° C. for storage until they were run on the LC-MS/MS system. A similar procedure was followed for the control samples. […]

SKOV3 cells [1] = test: Oxic and hypoxic cellular metabolism of prodrug 20; format: in vitro ADME, Human; details: 10 uM prodrug
Experimental: as §1

erbB1 = erbB1 (Homo sapiens, UniProt P00533); test: Isolated enzyme inhibition (Invitrogen Z′-LYTE kinase assay); format: biochemical; details: 10 μM ATP, duplicate
Chain of erbB1 (P00533 25-1210): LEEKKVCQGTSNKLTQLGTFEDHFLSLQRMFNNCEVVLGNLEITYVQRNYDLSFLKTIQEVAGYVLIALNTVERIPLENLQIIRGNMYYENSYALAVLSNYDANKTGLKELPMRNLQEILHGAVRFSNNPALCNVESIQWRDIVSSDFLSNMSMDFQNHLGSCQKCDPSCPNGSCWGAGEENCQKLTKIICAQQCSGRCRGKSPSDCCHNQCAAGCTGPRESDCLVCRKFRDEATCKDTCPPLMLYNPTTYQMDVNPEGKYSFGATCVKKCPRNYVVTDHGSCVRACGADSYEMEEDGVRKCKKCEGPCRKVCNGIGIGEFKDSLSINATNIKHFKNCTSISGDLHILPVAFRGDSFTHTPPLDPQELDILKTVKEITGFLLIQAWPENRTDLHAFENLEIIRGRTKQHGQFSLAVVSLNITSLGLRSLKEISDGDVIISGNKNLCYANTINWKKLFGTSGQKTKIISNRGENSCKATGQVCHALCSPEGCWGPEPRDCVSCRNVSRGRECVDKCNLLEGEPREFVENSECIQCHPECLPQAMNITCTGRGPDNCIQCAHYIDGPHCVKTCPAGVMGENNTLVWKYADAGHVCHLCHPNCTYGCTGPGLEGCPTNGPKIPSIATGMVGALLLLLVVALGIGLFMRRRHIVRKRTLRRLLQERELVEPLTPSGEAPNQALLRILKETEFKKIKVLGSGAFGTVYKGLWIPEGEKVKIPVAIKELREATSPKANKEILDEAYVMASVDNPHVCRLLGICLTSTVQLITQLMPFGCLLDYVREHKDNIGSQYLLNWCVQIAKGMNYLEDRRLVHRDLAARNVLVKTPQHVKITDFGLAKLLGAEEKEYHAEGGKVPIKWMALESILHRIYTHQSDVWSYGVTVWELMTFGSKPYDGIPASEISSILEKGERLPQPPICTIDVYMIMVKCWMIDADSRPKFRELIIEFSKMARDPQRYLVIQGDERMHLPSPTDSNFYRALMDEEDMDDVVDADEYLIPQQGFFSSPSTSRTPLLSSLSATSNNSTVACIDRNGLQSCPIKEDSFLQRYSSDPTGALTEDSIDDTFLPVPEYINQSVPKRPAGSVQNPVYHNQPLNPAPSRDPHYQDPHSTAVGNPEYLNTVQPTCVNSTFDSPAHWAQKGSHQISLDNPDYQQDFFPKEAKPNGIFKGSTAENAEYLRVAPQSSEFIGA

erbB2 [2] = target: T1, erbB2 (Homo sapiens, UniProt P04626); test: as above; format: biochemical; details: 10 μM ATP, duplicate
T1 sequence (P04626 23-1255): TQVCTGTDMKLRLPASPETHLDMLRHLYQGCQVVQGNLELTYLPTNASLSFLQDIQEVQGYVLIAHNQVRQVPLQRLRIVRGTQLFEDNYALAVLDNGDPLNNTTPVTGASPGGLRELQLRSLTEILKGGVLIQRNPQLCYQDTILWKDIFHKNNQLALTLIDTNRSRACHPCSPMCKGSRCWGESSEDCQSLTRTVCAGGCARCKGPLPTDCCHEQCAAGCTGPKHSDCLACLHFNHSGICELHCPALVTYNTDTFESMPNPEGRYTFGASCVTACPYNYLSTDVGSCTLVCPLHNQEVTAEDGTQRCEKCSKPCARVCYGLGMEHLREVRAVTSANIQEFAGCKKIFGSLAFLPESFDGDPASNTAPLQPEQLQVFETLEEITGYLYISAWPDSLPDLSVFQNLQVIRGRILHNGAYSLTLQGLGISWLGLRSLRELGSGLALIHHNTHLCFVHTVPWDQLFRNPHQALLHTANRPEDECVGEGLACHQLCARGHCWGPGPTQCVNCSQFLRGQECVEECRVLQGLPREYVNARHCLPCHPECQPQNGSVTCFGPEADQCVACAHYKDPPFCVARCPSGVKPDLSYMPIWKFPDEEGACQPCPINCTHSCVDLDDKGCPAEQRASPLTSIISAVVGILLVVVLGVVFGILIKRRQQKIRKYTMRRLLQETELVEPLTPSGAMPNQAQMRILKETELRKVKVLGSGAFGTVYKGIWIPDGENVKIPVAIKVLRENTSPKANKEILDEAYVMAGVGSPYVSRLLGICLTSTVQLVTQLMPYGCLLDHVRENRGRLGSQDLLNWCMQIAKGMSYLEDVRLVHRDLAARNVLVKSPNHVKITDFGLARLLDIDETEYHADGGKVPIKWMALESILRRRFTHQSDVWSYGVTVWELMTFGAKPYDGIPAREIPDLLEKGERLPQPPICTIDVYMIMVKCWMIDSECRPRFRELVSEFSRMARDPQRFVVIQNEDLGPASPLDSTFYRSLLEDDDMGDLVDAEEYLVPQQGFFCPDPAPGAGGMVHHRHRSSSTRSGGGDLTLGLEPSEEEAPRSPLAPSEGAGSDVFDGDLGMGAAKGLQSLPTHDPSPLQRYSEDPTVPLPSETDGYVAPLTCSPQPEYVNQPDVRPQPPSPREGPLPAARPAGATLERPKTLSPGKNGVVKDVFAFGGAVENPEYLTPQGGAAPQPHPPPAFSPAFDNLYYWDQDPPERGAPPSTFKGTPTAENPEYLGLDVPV

erbB4 = erbB4 (Homo sapiens, UniProt Q15303); test: as above; format: biochemical; details: 10 μM ATP, duplicate
Chain of erbB4 (Q15303 26-1308): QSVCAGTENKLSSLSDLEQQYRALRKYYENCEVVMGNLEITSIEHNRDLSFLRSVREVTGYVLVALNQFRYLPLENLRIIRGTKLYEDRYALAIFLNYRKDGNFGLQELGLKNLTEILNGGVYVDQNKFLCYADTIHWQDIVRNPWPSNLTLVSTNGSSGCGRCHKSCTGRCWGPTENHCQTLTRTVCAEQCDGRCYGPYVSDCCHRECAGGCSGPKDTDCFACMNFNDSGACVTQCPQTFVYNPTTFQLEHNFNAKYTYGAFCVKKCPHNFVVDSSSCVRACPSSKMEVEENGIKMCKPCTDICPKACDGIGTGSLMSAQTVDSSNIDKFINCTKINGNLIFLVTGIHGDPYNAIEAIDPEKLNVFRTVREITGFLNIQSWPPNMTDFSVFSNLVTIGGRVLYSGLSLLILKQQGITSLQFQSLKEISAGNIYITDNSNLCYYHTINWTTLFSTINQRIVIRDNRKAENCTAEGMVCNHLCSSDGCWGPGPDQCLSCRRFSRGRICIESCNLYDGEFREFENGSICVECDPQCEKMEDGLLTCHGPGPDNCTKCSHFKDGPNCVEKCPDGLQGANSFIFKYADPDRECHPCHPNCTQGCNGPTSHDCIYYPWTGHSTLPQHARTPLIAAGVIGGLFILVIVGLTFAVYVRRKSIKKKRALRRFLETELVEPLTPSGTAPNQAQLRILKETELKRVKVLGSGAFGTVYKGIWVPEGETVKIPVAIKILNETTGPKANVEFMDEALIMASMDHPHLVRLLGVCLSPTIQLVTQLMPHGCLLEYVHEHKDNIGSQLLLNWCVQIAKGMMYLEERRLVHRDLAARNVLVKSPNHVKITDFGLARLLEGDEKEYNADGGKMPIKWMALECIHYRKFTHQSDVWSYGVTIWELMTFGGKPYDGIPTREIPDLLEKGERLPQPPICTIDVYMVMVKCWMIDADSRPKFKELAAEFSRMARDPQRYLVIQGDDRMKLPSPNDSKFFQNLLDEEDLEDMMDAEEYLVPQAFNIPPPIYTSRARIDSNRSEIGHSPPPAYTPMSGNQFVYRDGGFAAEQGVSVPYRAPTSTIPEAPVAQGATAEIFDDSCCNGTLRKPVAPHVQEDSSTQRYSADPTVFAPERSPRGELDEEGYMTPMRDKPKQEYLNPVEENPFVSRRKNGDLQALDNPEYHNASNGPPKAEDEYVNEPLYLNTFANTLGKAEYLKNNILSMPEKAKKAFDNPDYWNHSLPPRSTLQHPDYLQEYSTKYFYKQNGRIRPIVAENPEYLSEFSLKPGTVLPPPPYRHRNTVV

[3] = Hypoxia-selective reduction of prodrug 20 in cell free media; format: in vitro ADME; details: cell free media containing 5% fetal calf serum, hypoxic
SW620 cells = test: Cellular growth inhibition (sulforhodamine B); format: cell-based, Human; details: Table 3
Experimental: (§2) Human A431, BT474, SKBR3, SKOV3, SW620, H1975 and HT29 carcinoma cells in log phase exponential growth in alpha minimal essential media (αMEM) containing 5% fetal bovine serum (FBS), were harvested by trypsinisation (1× trypsin/EDTA, Gibco Brl), counted, and seeded into 96 well plates (Nunc) at cell densities ranging from 800-1500 cells/well. Half of the cell samples were seeded into plates that were pre-equilibrated and held in an anoxic environment (90% N2, 5% H2, 5% CO2, 37° Q Anaerobic chamber, Coy Laboratory Products). […] At the end of this period the anoxic plates were recovered from the anaerobic camber and held under normoxia in a standard CO2 incubator (37° C.) for 20 hours. All plates were washed free of compound and cells were allowed to proliferate for a further 4 days in αMEM containing 5% FBS+antibiotics. Cells were fixed in trichloroacteic acid (30 min), washed and stained with sulforhodamine B (SRB, 60 min) prior to washing in acidified water. SRB was solubilised and absorption read at 450 nm to calculate cell densities. Inhibition of proliferation was calculated relative to untreated control wells.

SKOV3 cells [4] = test: Cellular growth inhibition (sulforhodamine B); format: cell-based, Human; details: Table 9; for IC50: Homo sapiens, SK-OV-3
Experimental: (§3) Human A431, H1975 and SKOV3 carcinoma cells in log phase exponential growth in alpha minimal essential media (αMEM) containing 5% fetal bovine serum (FBS), were harvested by trypsinisation (1× trypsin/EDTA, Gibco Brl), counted, and seeded into 96 well plates (Nunc) at cell densities ranging from 800-1500 cells/well. Half of the cell samples were seeded into plates that were pre-equilibrated and held in an anoxic environment (90% N2, 5% H2, 5% CO2, 37° C.; Anaerobic chamber, Coy Laboratory Products). […] At the end of this period the anoxic plates were recovered from the anaerobic camber and held under normoxia in a standard CO2 incubator (37° C.) for 20 hours. All plates were washed free of compound and cells were allowed to proliferate for a further 4 days in αMEM containing 5% FBS+antibiotics. Cells were fixed in trichloroacteic acid (30 min), washed and stained with sulforhodamine B (SRB, 60 min) prior to washing in acidified water. SRB was solubilised and absorption read at 450 nm to calculate cell densities. Inhibition of proliferation was calculated relative to untreated control wells.

[5] = Plasma and A431 tumour pharmacokinetics of compounds 42 and 161
[6] = Plasma and tissue pharmacokinetics of prodrug 42 in H1975 tumour bearing mice; format: in vivo; details: female, NIH-III, mouse, 20 umol/kg, single iv dose of 42 at 20 μmol/kg
Experimental: Compound 42 was dosed at a nominal low dose of 20 μmol/kg to nine female NIH-III mice bearing H1975 tumour xenografts, as a solution in DMSO/5% dextrose (20:80) via intravenous injection. […] The frozen powders were then collected in pre-weighed microcentrifuge tubes (kept on dry ice). Four volumes of ice cold acetonitrile (containing 0.5 μM D6-161 as an internal standard) was added to each sample to extract the drug from the tissue powder. […] To 10 μL of plasma (collected in EDTA) was added 40 μL of ice cold acetonitrile (containing 0.5 μM D6-161 as an internal standard). The resulting solution was mixed and then centrifuged at 13,000 rpm for 5 min.

H1975 cells = test: Cellular growth inhibition (sulforhodamine B); format: cell-based, Human; details: Table 9; for IC50: Homo sapiens, NCI-H1975
Experimental: as §2, §3
They were then washed free of drug and incubated for a further 4 days, before being stained for cell survival with sulforhodamine B.

in vivo = details: female, NIH-III nude, mouse, ip, pH 4
erbB2 [7] = target: T1, erbB2; test: Inhibition of basal phospho-erbB2 in SKOV3 cells (Western blot); format: cell-based; set-up: endogenous in cells; host or cells: SKOV3 human ovarian carcinoma cells; details: Table 8
Description: Values are plotted using SigmaPlot 10.

H1975 xenografts = test: In vivo efficacy in H1975 xenografts; set-up: species or system mice

Cn1cnc([N+](=O)[O-])c1C[N+](C)(C)C/C=C/C(=O)Nc1ccc2ncnc(Nc3cccc(Br)c3)c2c1.[Br-] [Compound 20, (2E)-4-{[4-(3-bromoanilino)-6-quinazolinyl]amino}-N,N-dimethyl-N-[(1-methyl-4-nitro-1H-imidazol-5-yl)methyl]-4-oxo-2-buten-1-ammonium bromide]
rate of hypoxic metabolism to inhibitor 11 (A431 cells): 200 pmol/hour/million cells
rate of hypoxic metabolism to inhibitor 11 (SKOV3 cells [1]): 500 pmol/hour/million cells
IC50 (erbB1): 0.00047 µM
IC50 (erbB2 [2]): 0.112 µM
IC50 (erbB4): 0.085 µM
effector AUC as share of prodrug AUC (compound 11 in plasma after dosing prodrug 20): one
AUC0-250 min Effector (effector (compound 11) in plasma after dosing prodrug): 2.7 µM·h
AUC0-250 min Parent (plasma, IP, 42% of single dose MTD, predicted from modelled curves): 279 µM·h
rate of release of inhibitor 11 [3]: 62 pmol/h
SW620 Deact. (SW620 cells): 18 fold
SW620 HCR (SW620 cells): 3.1 fold
IC50 (SW620 cells; 24 hour exposure entirely oxic, read-out: Cellular Growth Inhibition IC50 SW620 Oxic): 63.3 µM
IC50 (SW620 cells; first 4 hours anoxic, read-out: Cellular Growth Inhibition IC50 SW620 Anoxic): 20.2 µM

Cn1cnc([N+](=O)[O-])c1C[N+](C)(C)C/C=C/C(=O)Nc1cc2c(Nc3ccc(F)c(Br)c3)ncnc2cn1 [Compound 42, (2E)-4-{[4-(3-bromo-4-fluoroanilino)pyrido[3,4-d]pyrimidin-6-yl]amino}-N,N-dimethyl-N-[(1-methyl-4-nitro-1H-imidazol-5-yl)methyl]-4-oxo-2-buten-1-ammonium bromide]
IC50 (SKOV3 cells [4]; 24 hour exposure oxic, read-out: Cellular Growth Inhibition IC50 SKOV3 Oxic): 35.5 µM
IC50 (SKOV3 cells [4]; first 4 hours anoxic, read-out: Cellular Growth Inhibition IC50 SKOV3 Anoxic): 2.85 µM
SKOV3 Deact. (SKOV3 cells [4]): 42 fold
SKOV3 HCR (SKOV3 cells [4]): 20.3 fold
stable tumour tissue concentration ([5]; prodrug 42, out to 72 h): ~30 µmol/kg
tumour AUC0-72h ([5]; prodrug 42 at 100 umol/kg ip, A431 tumour): 2821 µmol·h/kg
plasma AUC fold greater than for administration of inhibitor 161 ([5]; ~75% of q3dx4 MTD each): ~27 fold
AUC(0-t) ([6]; H1975 tumour, read-out: AUC0-24 hr H1975 Tumour, 42): 123 µM·h
AUC(0-t) ([6]; liver, read-out: AUC0-24 hr Liver, 42): 256 µM·h
AUC(0-t) ([6]; plasma, read-out: AUC0-24 hr Plasma, 42): 24.7 µM·h
AUC(0-t) ([6]; skin, read-out: AUC0-24 hr Skin, 42): 198 µM·h
IC50 (H1975 cells; 24 hour exposure oxic, read-out: Cellular Growth Inhibition IC50 H1975 Oxic): 37.2 µM
IC50 (H1975 cells; first 4 hours anoxic, read-out: Cellular Growth Inhibition IC50 H1975 Anoxic): 4.22 µM
H1975 Deact. (H1975 cells): 30 fold
H1975 HCR (H1975 cells): 10.8 fold
MTD (in vivo): 133 µmol/kg
Deact. erbB2 (fold reduction in cellular inhibition relative to the parent kinase inhibitor) (erbB2 [7]; SKOV3 cells): 35 fold
IC50 (erbB2 [7]; basal phospho-erbB2 in SKOV3 cells, read-out: Cellular Enzyme Inhibition IC50 erbB2): 0.212 µM
tumour growth inhibition (TGI) (H1975 xenografts; H1975 xenografts, equitoxic dose 133 (42) and 42.2 (161) μmol/kg/dose, q3dx4, IP): 188%
tumour growth inhibition (TGI) (H1975 xenografts; H1975 xenografts, q3dx4 at respective MTD, IP): 229%
tumour growth inhibition (TGI) (H1975 xenografts; large H1975 xenografts, 75 umol/kg/dose, q3dx8, IP): 154%
tumour growth inhibition (TGI) (H1975 xenografts; large H1975 xenografts, 100 umol/kg/dose, q3dx8, IP): 213%
tumour growth inhibition (TGI) (H1975 xenografts; large H1975 xenografts, 133 umol/kg/dose, q3dx8, IP): 275%
